Measured values taken from PubChem BioAssay (NCI).
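All cell lines were grown in 96-well plates and treated with compound for 48 hours. The concentration for full growth arrest is given as TGI.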

Columns and labels:
Test in all cases: NCI-60 cell line screen, 48 h
DLD-1 colon = test system: DLD-1 colon
DMS 114 small cell lung = test system: DMS 114 small cell lung
DMS 273 small cell lung = test system: DMS 273 small cell lung
LXFL 529 NSCLC = test system: LXFL 529 NSCLC
M19-MEL melanoma = test system: M19-MEL melanoma
SNB-78 CNS = test system: SNB-78 CNS
XF 498 CNS = test system: XF 498 CNS
HOP-18 NSCLC = test system: HOP-18 NSCLC
RXF-631 renal = test system: RXF-631 renal

| Structure (SMILES) | TGI (DLD-1 colon) [µM] | TGI (DMS 114 small cell lung) [µM] | TGI (DMS 273 small cell lung) [µM] | TGI (LXFL 529 NSCLC) [µM] | TGI (M19-MEL melanoma) [µM] | TGI (SNB-78 CNS) [µM] | TGI (XF 498 CNS) [µM] | TGI (HOP-18 NSCLC) [µM] | TGI (RXF-631 renal) [µM] |
| --- | --- | --- | --- | --- | --- | --- | --- | --- | --- |
| CCCCCCn1c(SCC)c2ccccc2c1-c1nc(F)nc(F)n1 | > 100 | > 100 | > 100 | > 100 | > 100 | > 100 | > 100 | – | – |
| CN(C(=O)C12C3C4C1C1C2C3C41I)C(C)(C)C (stereo unspecified) | > 100 | > 100 | > 100 | > 100 | > 100 | > 100 | > 100 | > 100 | > 100 |
| Cc1c2ccncc2cc2c1sc1ccncc12 | 15 | 21.6 | 11.1 | 28.1 | 16.6 | 40.9 | 29.8 | > 100 | > 40.9 |
| NC(=O)OCC(COc1ccc(Cl)cc1)OC(=O)c1ccccc1Cl (stereo unspecified) | 37.1 | 28.1 | 36.4 | 64.6 | – | > 100 | – | 62.8 | 46 |
| CC#COP(=O)(OCC)OCC | > 100 | > 100 | – | > 100 | > 100 | > 100 | – | – | > 100 |
| COc1cc(NC(C)=O)c2[nH]c3c(C)cc(NC(C)=O)c(C)c3c2c1 | > 100 | > 100 | > 100 | > 100 | > 100 | – | > 100 | > 100 | – |
| COc1ccc(/C=C(\Cl)c2ccc(OC)c(OC)c2)cc1OC | > 100 | > 100 | > 100 | > 100 | > 100 | – | – | – | – |
| COC(=O)c1[nH]c(=S)[nH]c(=O)c1-c1ccc(Cl)cc1 | > 50 | > 50 | > 50 | > 50 | > 50 | > 50 | > 50 | – | > 50 |
| C/C(CN1C(=O)c2ccccc2C1=O)=N\NS(=O)(=O)c1ccc(Br)cc1 | > 100 | 68.8 | > 100 | > 100 | > 100 | > 100 | – | > 100 | – |
| COc1ccc(Br)c2c1CC(C(=O)O)CC2 (stereo unspecified) | > 100 | > 100 | > 100 | > 100 | – | > 100 | > 100 | > 100 | – |
| Cn1c(O)c(C(=O)Nc2cccs2)c(=O)[nH]c1=S | 73.9 | 35.9 | – | 40.8 | 44.3 | 47.7 | – | 8.34 | – |
| NC(=S)NNC(=O)/C(=C/c1ccc(/C=C(\NC(=O)c2ccccc2)C(=O)NNC(N)=S)cc1)NC(=O)c1ccccc1 | > 100 | > 100 | > 100 | > 100 | > 100 | > 100 | > 100 | > 100 | – |
| O=S(=O)([O-])[O-].[Fe+2].c1ccc(/C(=N\Nc2ccccn2)c2ccccn2)cc1 | 11.2 | 3.73 | 11.5 | 12.3 | 4.25 | 12.1 | – | 14.6 | – |
| COc1cc(/C=C/C(=O)c2sc(-n3nc(-c4ccccc4)cc3-c3ccccc3)nc2C)ccc1O | > 100 | > 100 | > 100 | – | > 100 | > 100 | – | > 100 | > 100 |
| CC(=O)OCC(=O)[C@@]1(O)CC[C@H]2[C@@H]3CCC4=CC(=O)[C@H](C)C[C@]4(C)[C@H]3[C@@H](O)C[C@@]21C | > 100 | > 100 | > 100 | – | > 100 | > 100 | > 100 | > 100 | – |
| c1ccc(Nc2nnc(CSc3nc(-c4ccccc4)c(-c4ccccc4)[nH]3)s2)cc1 | > 100 | 81 | 43.4 | 53.3 | 28.6 | 79.9 | – | – | – |
| CC(C)=CCCC1(C)C=Cc2c(c(C)cc3c2[nH]c2cc(O)ccc23)O1 (stereo unspecified) | > 25 | > 25 | > 25 | > 25 | > 25 | – | > 25 | > 25 | – |
| CC1CC2OC(=O)C3CC(O)CC(=C23)[C@@]12C[C@@H](c1ccoc1)OC2=O (stereo partly specified) | > 100 | – | > 100 | > 100 | > 100 | > 100 | > 100 | > 100 | – |
| C/C(=N\N)C(CN(C)C)C(c1ccccc1)c1c(O)c2ccccc2oc1=O (stereo unspecified) | > 100 | > 100 | > 100 | > 100 | > 100 | > 100 | 99.8 | > 100 | > 100 |
| NS(=O)(=O)c1cc2c(cc1Cl)NC(C(=O)c1cc(=O)c3ccc(O)cc3o1)=NS2(=O)=O | > 100 | > 100 | > 100 | – | > 100 | > 100 | > 100 | > 100 | – |
| C=CCONC(=O)c1ccc(Cl)cc1 | > 100 | > 100 | – | > 100 | > 100 | > 100 | > 100 | > 100 | > 100 |
